Results taken from PubChem BioAssay (NCI).
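Grown in 96-well plates, cells were treated for 48 hours with each compound at five concentrations. Insufficient inhibition: endpoint recorded as highest concentration tested. TGI is the concentration that stops growth completely.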

Assays:
Test in all cases: NCI-60 cell line screen, 48 h
[1] = system: SF-295 CNS
[2] = system: COLO 205 colon
[3] = system: NCI/ADR-RES ovarian
[4] = system: U251 CNS
[5] = system: LOX IMVI melanoma
[6] = system: A549 NSCLC
[7] = system: NCI-H460 lung
[8] = system: M14 melanoma
[9] = system: SK-MEL-28 melanoma
[10] = system: OVCAR-4 ovarian
[11] = system: SN12C renal
[12] = system: IGROV1 ovarian
[13] = system: SF-539 CNS
[14] = system: SK-MEL-2 melanoma
[15] = system: UO-31 renal
[16] = system: MALME-3M melanoma
[17] = system: SF-268 CNS
[18] = system: UACC-257 melanoma
[19] = system: OVCAR-5 ovarian
[20] = system: PC-3 prostate
[21] = system: T-47D breast
[22] = system: HCT-15 colon
[23] = system: ACHN renal
[24] = system: SNB-75 CNS
[25] = system: OVCAR-8 ovarian
[26] = system: HS 578T breast
[27] = system: NCI-H23 lung
[28] = system: EKVX NSCLC
[29] = system: RPMI-8226 leukemia
[30] = system: 786-0 renal
[31] = system: TK-10 renal
[32] = system: MDA-MB-231 breast
[33] = system: SK-MEL-5 melanoma
[34] = system: HL-60(TB) leukemia
[35] = system: UACC-62 melanoma
[36] = system: HOP-62 NSCLC
[37] = system: RXF 393 renal
[38] = system: NCI-H522 lung
[39] = system: SNB-19 CNS
[40] = system: MCF7 breast
[41] = system: MDA-MB-435
[42] = system: BT-549 breast
[43] = system: OVCAR-3 ovarian
[44] = system: HT29 colon
[45] = system: DU-145 prostate
[46] = system: SK-OV-3 ovarian
[47] = system: CAKI-1 renal
[48] = system: HOP-92 NSCLC
[49] = system: CCRF-CEM leukemia
[50] = system: MDA-N
[51] = system: A498 renal
[52] = system: MOLT-4 leukemia
[53] = system: SW-620 colon
[54] = system: K-562 leukemia
[55] = system: KM12 colon
[56] = system: NCI-H226 lung
[57] = system: SR leukemia
[58] = system: HCC-2998 colon
[59] = system: HCT-116 colon

O=Nc1c(-c2c(O)[nH]c3ccc(I)cc23)[nH]c2ccccc12
TGI [1]: > 71.7 µM | TGI [2]: > 100 µM | TGI [3]: > 63.4 µM | TGI [4]: > 40.9 µM | TGI [5]: > 24.5 µM | TGI [6]: > 30.4 µM | TGI [7]: > 47.4 µM | TGI [8]: > 100 µM | TGI [9]: > 100 µM | TGI [10]: 14.8 µM | TGI [11]: 17.9 µM | TGI [12]: 8.51 µM | TGI [13]: 81.5 µM | TGI [14]: 4.93 µM | TGI [15]: 5.43 µM | TGI [16]: > 32.7 µM | TGI [17]: 25.9 µM | TGI [18]: > 100 µM | TGI [19]: > 27.1 µM | TGI [20]: > 27.9 µM | TGI [21]: > 69.8 µM | TGI [22]: > 39.9 µM | TGI [23]: > 21.4 µM | TGI [24]: 20.7 µM | TGI [25]: > 43.4 µM | TGI [26]: > 29.8 µM | TGI [27]: > 100 µM | TGI [28]: > 69.7 µM | TGI [29]: 4.67 µM | TGI [30]: > 35.1 µM | TGI [31]: > 41.5 µM | TGI [32]: 9.77 µM | TGI [33]: > 100 µM | TGI [34]: 6.96 µM | TGI [35]: 4.45 µM | TGI [36]: > 30.8 µM | TGI [37]: 3.81 µM | TGI [38]: > 26.1 µM | TGI [39]: > 62.1 µM | TGI [40]: > 19.9 µM | TGI [41]: > 100 µM | TGI [42]: > 59.3 µM | TGI [43]: > 57.3 µM | TGI [44]: > 21.6 µM | TGI [45]: > 24.6 µM | TGI [46]: > 35 µM | TGI [47]: > 100 µM | TGI [48]: > 27.7 µM | TGI [49]: 5.07 µM | TGI [50]: 47.2 µM | TGI [51]: > 27.6 µM

COC(=O)C1C(=O)CC(C)(O)C(C(=O)OC)C1c1ccc(N(C)C)cc1 (stereo not given)
TGI [1]: > 100 µM | TGI [2]: > 100 µM | TGI [52]: > 100 µM | TGI [53]: > 100 µM | TGI [3]: > 100 µM | TGI [4]: > 100 µM | TGI [5]: 24.4 µM | TGI [54]: > 100 µM | TGI [6]: > 100 µM | TGI [7]: > 100 µM | TGI [55]: > 100 µM | TGI [9]: > 100 µM | TGI [10]: > 100 µM | TGI [11]: > 100 µM | TGI [12]: > 100 µM | TGI [56]: > 100 µM | TGI [14]: > 100 µM | TGI [15]: > 100 µM | TGI [16]: > 100 µM | TGI [17]: > 100 µM | TGI [57]: > 100 µM | TGI [18]: > 100 µM | TGI [58]: > 100 µM | TGI [19]: > 100 µM | TGI [20]: > 100 µM | TGI [21]: > 100 µM | TGI [22]: > 100 µM | TGI [23]: > 100 µM | TGI [24]: > 100 µM | TGI [25]: > 100 µM | TGI [27]: > 100 µM | TGI [28]: > 100 µM | TGI [30]: 24.7 µM | TGI [31]: > 100 µM | TGI [32]: > 100 µM | TGI [33]: > 100 µM | TGI [34]: > 100 µM | TGI [35]: > 100 µM | TGI [36]: > 100 µM | TGI [37]: > 100 µM | TGI [38]: > 100 µM | TGI [39]: > 100 µM | TGI [40]: > 100 µM | TGI [59]: 21 µM | TGI [41]: > 100 µM | TGI [42]: > 100 µM | TGI [43]: > 100 µM | TGI [44]: > 100 µM | TGI [45]: > 100 µM | TGI [47]: > 100 µM | TGI [48]: > 100 µM | TGI [49]: > 100 µM | TGI [50]: > 100 µM | TGI [51]: > 100 µM
